# Reference: patent publication US8114862B2, “TGR5 modulators and methods of use thereof” (Intercept Pharmaceuticals, Inc., priority 2008, dated 2012)
# Key:
# [1] = Stability in human liver S9 fraction
# [2] = Stability in human liver microsomes; settings: microsomes
smiles,measurement,setting,value
"C[C@]12CC[C@H]3[C@@H](CCC4=CC(=O)CC[C@@]43C)[C@@H]1CC[C@@H]2O [Testosterone, reference compound]",half-life,[1],39 min
same,half-life,[2],8 to 20 min
